In patent US7855185B2, “MN gene and protein” (Institute of Virology of the Slovak Academy of Sciences, priority 2001, dated 2010):

Tests used:
MAb M75 = assay: Competition ELISA with M75 on adsorbed GST-MN; type: binding, mouse; conditions: for activity of phage-display nonapeptides in competition ELISA: peptides of 7+2 aa; for competition in ELISA for M75: 100 μg/ml
Procedure: ELISA. Purified GST-MN [Zavada et al. (1993), supra] at concentration 10 ng/ml in carbonate buffer pH 9.2 was adsorbed for 3 h in Maxisorb strips (NUNC). After washing and blocking (1 h) with 0.05% Tween 20 in PBS, 50 μl/well of the antibody+antigen mixtures were added. […] These mixtures were adsorbed for 1.5 h, followed by washing with Tween-PBS. Bound antibody was detected by antimouse IgG conjugate with peroxidase (SwAM-Px, SEVAC, Prague), diluted 1:1000. In the color reaction OPD (o-phenylenediamine dihydrochloride, Sigma) 1 mg/ml in 0.1 M citrate buffer pH 5.0 was used. To this H2O2 was added to final concentration 0.03%. This system is balanced so as to allow assay for antigen competing for M75 as well as for peptides binding to the epitope of immobilized GST-MN.
Identification of the epitope recognized by Mab M75. Preliminary mapping of M75 epitope employing partial sequences of extracellular parts of MN/CA9 cDNA expressed from bacterial vectors and tested on Western blots located it in PG region For exact mapping, our strategy was to synthesize partially overlapping oligopeptides of 15-25 aa covering the PG domain and test them in competition ELISA with M75. According to the results, this was followed by a series of 6-12 aa oligopeptides. A major part of the PG domain consists of a 6-fold tandem repeat of 6 aa (aa 61-96) [SEQ ID NO: 97]; 4 repeats are identical (GEEDLP) [SEQ ID NO: 98] and 2 contain 2 aa exchanged (SEEDSP [SEQ ID NO: 141] and REEDPP [SEQ ID NO: 142]).

MN/CA IX = MN/CA IX (Homo sapiens, UniProt Q16790); assay: Cell adhesion assay on immobilized purified MN/CA IX (Example 2); type: cell-based
Procedure: The series of oligopeptides were tested by the cell adhesion assay procedure essentially as described above in Example 1. The synthetic oligopeptides were immobilized on hydrophobic plastic surfaces to see if they would mediate the attachment, spreading and growth of cells. Also investigated were whether the oligopeptides or antibodies inhibited attachment of cells (NIH3T3, HeLa and CGL1) to purified MN protein coated onto such plastic surfaces. The MN protein was affinity purified on agarose covalently linked to sulfonamide, as the MN protein encompasses a CA domain.
Cell adhesion assay. The conditions of the assay are basically as described in Example 1. Briefly, 1 μg/ml of purified MN/CA IX in 50 mM mono/bicarbonate buffer, pH 9.2, was adsorbed in 30 μl drops on the bottom of bacteriological 5 cm Petri dishes for 1.5 hr. Then the drops were removed by aspiration and the dishes were 3× rinsed with PBS and blocked with 50% FCS in culture medium for 30 min. There were two variants of the test. In the first one, the whole bottom of the Petri dish was blocked with 50% FCS, and the dishes were seeded with 5 ml of cell suspension (10^5 cells/ml). After overnight incubation, the cultures were rinsed with PBS, fixed and stained. In the other variant, only the area of adsorbed MN/CA IX was blocked and on top of MN/CA IX dots were added 30 μl drops of cell suspension in growth medium, containing added oligopeptides (or control without peptides). After incubation, rinsing and fixation, the cultures were stained with 0.5% Trypan blue in 50 mM Tris buffer pH 8.5 for 1 h, rinsed with water and dried. Stained areas of attached cells were extracted with 10% acetic acid, the extracts transferred to 96-well plates and absorbance was measured at 630 nm on microplate reader.

[1] = system: NIH3T3 cells freshly transformed with the [pGD.MN+MLV] complex; assay: Morphologic transformation of NIH3T3 cells by [pGD.MN+MLV] complex in the presence of acetazolamide; conditions: 10^−5M, 4 days of incubation
[2] = system: Rat2TK- cells and C33 human cervical carcinoma cells transfected with pMN-HSVtk; assay: GVC sensitivity of pMN-HSVtk transfectants; type: cell-based; conditions: in vitro, even in low concentrations
Procedure: A plasmid construct in which HSVtk was cloned downstream of the MN promoter region Bd3, containing both proximal and distant regulatory elements of MN, was prepared. That plasmid pMN-HSVtk was transfected to Rat2TK-cells and C33 human cervical carcinoma cells using calcium phosphate precipitation and lipofection, respectively. Transfectants were tested for expression of HSVtk and GVC sensitivity. Analysis of the transfectants has shown the remarkable cytotoxic in vitro effect of GVC even in low concentrations (up to 95% of cells killed).

For GEEDLPGEEDLP [SEQ ID NO: 119], the “serological activity in competition ELISA with M75” value (“serological activity” for short) (MAb M75) was “serologically active”.

In the case of AGQTRSPLA [SEQ ID NO: 140], the “activity of phage-display nonapeptides in cell adhesion inhibition” value (“activity … in cell adhesion inhibition” below) (MN/CA IX) was “inactive” and the “activity of phage-display nonapeptides in competition ELISA” value (MAb M75) was “inactive”.

PGEEDLPGEEDL [SEQ ID NO: 124] was tested, and the “serological activity” value (MAb M75) was “serologically active”.

In the case of AEDLPGEA [SEQ ID NO: 133], the “serological activity” value (MAb M75) was “none of the following still shorter oligopeptides (6+2aa) competed”.

For AKKMKRRKA [SEQ ID NO: 137], the “activity … in cell adhesion inhibition” value (MN/CA IX) was “less active” and the “activity of phage-display nonapeptides in competition ELISA” value (MAb M75) was “less active”.

For AEEDLPGA [SEQ ID NO: 132], the “serological activity” value (MAb M75) was “none of the following still shorter oligopeptides (6+2aa) competed”.

In the case of APGEEDLPA [SEQ ID NO: 125], the “serological activity” value (MAb M75) was “minimum serologically active sequence”.

For “GGSSGEDDPLGEEDLPSEEDSPC [SEQ ID NO: 104, aa 51-72 of the PG region, cysteine added onto the C-end]”, the “concentration causing 50% inhibition in competition ELISA” value (MAb M75) was 1 ng/mL.

In the case of “EDPPGEEDLPGEEDLPGEEDLPEVC [SEQ ID NO: 106, aa 75-98 of the PG region, cysteine added onto the C-end]”, the “concentration causing 50% inhibition in competition ELISA” value (MAb M75) was 1 ng/mL.

For AGEEDLPA [SEQ ID NO: 131], the “serological activity” value (MAb M75) was “none of the following still shorter oligopeptides (6+2aa) competed”.

With “EVKPKSEEEGSLKLE [SEQ ID NO: 118, aa 97-111 of the PG region]” the “serological activity” value (MAb M75) was “inactive”.

With LPGEEDLPGEED [SEQ ID NO: 123] the “serological activity” value (MAb M75) was “serologically active”.

In the case of EDLPGEEDLP [SEQ ID NO: 121], the “serological activity” value (MAb M75) was “serologically active”.

For AEEDLPGEA [SEQ ID NO: 127], the “competition in ELISA for M75” value (MAb M75) was “negative”.

With ALPGEEDA [SEQ ID NO: 135] the “serological activity” value (MAb M75) was “none of the following still shorter oligopeptides (6+2aa) competed”.

ASASAPVSA [SEQ ID NO: 139] was tested, and the “activity … in cell adhesion inhibition” value (MN/CA IX) was “marginally positive only in ELISA” and the “activity of phage-display nonapeptides in competition ELISA” value (MAb M75) was “marginally positive”.

EEDLPGEEDLPG [SEQ ID NO: 120] was tested, and the “serological activity” value (MAb M75) was “serologically active”.

With AEDLPGEEA [SEQ ID NO: 128] the “competition in ELISA for M75” value (MAb M75) was “negative”.

For “GEEDLPSEEDSPREEDPPGEEDLPGEC [SEQ ID NO: 105, aa 61-85 of the PG region, cysteine added onto the C-end]”, the “fold less active than SEQ ID NOS: 104 and 106 in competition ELISA” value (MAb M75) was 1000 ×.

In the case of APGEEDLA [SEQ ID NO: 136], the “serological activity” value (MAb M75) was “none of the following still shorter oligopeptides (6+2aa) competed”.

For ADLPGEEDA [SEQ ID NO. 129], the “competition in ELISA for M75” value (MAb M75) was “negative”.

With ALPGEEDLA [SEQ ID NO: 130] the “competition in ELISA for M75” value (MAb M75) was “negative”.

In the case of DLPGEEDLPGEE [SEQ ID NO: 122], the “serological activity” value (MAb M75) was “serologically active”.

For AITFNAQYA [SEQ ID NO: 138], the “activity … in cell adhesion inhibition” value (MN/CA IX) was “highest activity” and the “activity of phage-display nonapeptides in competition ELISA” value (MAb M75) was “highest activity”.

For ADLPGEEA [SEQ ID NO: 134], the “serological activity” value (MAb M75) was “none of the following still shorter oligopeptides (6+2aa) competed”.

For CC(=O)Nc1nnc(S(N)(=O)=O)s1 [acetazolamide], the “difference between transformed cells growing in presence or absence of the drug” value [1] was “No difference”.

In the case of Nc1nc(O)c2ncn(COC(CO)CO)c2n1 [GVC, ganciclovir], the cells killed [2] was “up to 95%”.
